One assay deals with Th17 cells. The assay is described as follows: CD95-mediated migration / endothelial transmigration of Th17 cells (Boyden chamber). It is filed as cell-based, human. The following applies: non-toxic concentrations, 1 hour pre-incubation, Boyden chambers. How it is done: FIG. 3. Drugs inhibit CD95-mediated Ca′ response and cell migration. A. Activated PBLs were loaded with FuraPE3-AM (1 μM) and pre-treated for 1 h with non-toxic concentrations of indicated compounds. T-cells were then stimulated with cl-CD95L (100 ng/mL; arrow). Ratio values (R) were normalized to pre-stimulated values (R0) to yield R/R0 values. Data represent means±the SD. B. Left panel: using Boyden chamber assay, cell migration of parental H9 cells and their counterpart lacking CD95 (CD95-KO) was assessed. Right panel: activated PBLs were pre-incubated in the presence or absence of the indicated drugs for 1 hour using non-toxic concentration and the CD95-mediated cell migration was assessed by Boyden chambers. C. Th17 cells were sorted from blood of healthy donors (peripheral blood mononuclear cell). […] D. Th17 cells were pre-incubated in the presence or absence of the indicated drugs for 1 hour using non-toxic concentration and cell migration was assessed by Boyden chambers. […] To quantify invasion, cells were fixed with methanol and stained with Giemsa. […] For each experiment, invading cells were lysed and absorbance at 560 nm was measured. […] Cell sorting efficiency was evaluated by FACS. […] Transmigrated cells were counted in the lower reservoir by flow cytometry using a standard of 2.5×10^4 fluorescent beads (Flow-count, Beckman Coulter).

The subject of assay [1] is CD95-mediated Ca2+ signaling pathway in Th17 cells. Nature of the assay: CD95-mediated Ca2+ response in Th17 cells. To be noted: non-toxic concentrations (1 μM), 1 h pre-treatment, cl-CD95L 100 ng/mL, FuraPE3-AM. In kind it is cell-based, human. The procedure:
A. Activated PBLs were loaded with FuraPE3-AM (1 μM) and pre-treated for 1 h with non-toxic concentrations of indicated compounds. T-cells were then stimulated with thapsigargin (1 μM; arrow). Ratio values (R) were normalized to pre-stimulated values (R0) to yield R/R0 values. Data represent means±the SD. B. Th17 cells were sorted from healthy donors and loaded with FuraPE3-AM (1 μM). Th17 cells were pre-treated for 1 h with non-toxic concentrations of ritonavir or diflunisal (1 μM). T-cells were then stimulated with cl-CD95L (100 ng/mL; arrow). Ratio values (R) were normalized to pre-stimulated values (R0) to yield R/R0 values. Data represent means±the SD.
Human PBLs were sorted using flow cytometry cell sorting to isolate Th17 (A) according to their phenotype (CD3+CD4+CXCR5−CCR6+CXCR3−CD45RA−) and Tfh (B) (CD4+CXCR5+ICOS+PD−1+CD45RA−). Cells were pre-incubated with Indicated drugs (1 μM) for 1 h and then stimulated with 100 ng/mL of s-CD95L. [Ca2+]CYT was assessed in Fluo2 LR-AM (3 μM)-loaded cells. Data represent means±the SD of 3 independent experiments.
Peripheral blood mononuclear cells (PBMC) were isolated from buffy-coat by density gradient using lymphocyte separation medium (Eurobio, Les Ulis, France). PBMCs were then subjected to selection using a cocktail of antibody-coated magnetic beads: CCR6^+ CXCR3^−CD4^+ cells (Th17 cells) were sorted with Human Th17 Enrichment kit (STEMCELL Technologies, Grenoble, France). Cell sorting efficiency was evaluated by FACS.
T-cells were loaded with Fura-PE3-AM (1 μM) at room temperature for 30 min in Hank's Balanced Salt Solution (HBSS). After washing, the cells were incubated for 15 min in the absence of Fura-PE3-AM to complete de-esterification of the dye. Cells were placed in a temperature controlled chamber (37° C.) of an inverted epifluorescence microscope (Olympus IX70) equipped with an x40 UApo/340-1.15 W water-immersion objective (Olympus), and fluorescence micrograph images were captured at 510 nm and 12-bit resolution by a fast-scan camera (CoolSNAP fx Monochrome, Photometrics). To minimize UV light exposure, a 4×4 binning function was used. Fura-PE3 was alternately excited at 340 and 380 nm, and the ratios of the resulting images (emission filter at 520 nm) were produced at constant intervals (10 seconds). The Fura-PE3 ratio (Fratio 340/380) images were analyzed offline with Universal Imaging software, including Metafluor and Metamorph. Fratio reflects the intracellular Ca^2+ concentration changes. Each experiment was repeated at least 3 times, and the average of more than 20 single-cell traces per experiment was analyzed.

For assay [2], the system named is Tfh-dependent B cell activation. Nature of the assay: Tfh-dependent B-cell maturation co-culture (memory B cells with SEB-stimulated Tfh cells, s-CD95L). In kind it is cell-based. The following applies: preincubation of Tfh cells.
Assay [3] relates to CD95-mediated Ca2+ signaling pathway in Tfh cells. Nature of the assay: CD95-mediated Ca2+ response in Tfh cells. In kind it is cell-based, human. The following applies: Example 2; signal described for Th17 and circulating Tfh cells.

As to `O=C(O)c1cc(-c2ccc(F)cc2F)ccc1O` [diflunisal, 5-(2,4-difluorophenyl)-2-hydroxybenzoic acid], the “effect on endothelial transmigration in Th17 cells” value with Th17 cells was “abrogated”. Also, the “effect on CD95-mediated Ca2+ signaling in Th17 cells” value in assay [1] is given as “abrogated”.
Regarding `CC(C)c1nc(CN(C)C(=O)N[C@H](C(=O)N[C@@H](Cc2ccccc2)C[C@H](O)[C@H](Cc2ccccc2)NC(=O)OCc2cncs2)C(C)C)cs1` [ritonavir, 1,3-thiazol-5-ylmethyl N-[(2S,3S,5S)-3-hydroxy-5-[[(2S)-3-methyl-2-[[methyl-[(2-propan-2-yl-1,3-thiazol-4-yl)methyl]carbamoyl]amino]butanoyl]amino]-1,6-diphenylhexan-2-yl]carbamate], the “effect on endothelial transmigration in Th17 cells” value in the assay with Th17 cells was “abrogated”. In addition, the “effect on CD95-mediated Ca2+ signaling in Th17 cells” value in assay [1] is reported as “abrogated”. The “effect on Tfh-dependent B cell activation” value in assay [2] is on record as “blocks”. Moreover, in assay [3], the “effect on sCD95L-induced Ca2+ response” value is on record as “abrogated”.

The values are drawn from patent US20190350907A1, “METHODS AND PHARMACEUTICAL COMPOSITIONS FOR REDUCING CD95- MEDIATED CELL MOTILITY” (INSERM (INSTITUT NATIONAL DE LA SANTÉ ET DE LA RECHERCHE …, priority 2017, published 2019).
